In article PMC11266212, “Effect of Clarithromycin, a Strong CYP3A and P-glycoprotein Inhibitor, on the Pharmacokinetics of Edoxaban in Healthy Volunteers and the Evaluation of the Drug Interaction with Other Oral Factor Xa Inhibitors by a Microdose Cocktail Approach” (Cardiovascular Drugs and Therapy, 2023):
Read-outs that look alike come from different tables or passages of the source.

Legend:
[1] = cited from earlier work
[2] = test system: CYP; settings: cited from earlier work
[3] = clinical; settings: for GMR of dose-normalized AUC0-∞, microdose vs therapeutic dose: edoxaban 50 μg vs 60 mg; for AUC: AUC0-∝
Method: (§1) The study was an open-label, two-period, one-sequence DDI trial in healthy volunteers to assess the impact of clarithromycin on the pharmacokinetics of 60 mg edoxaban, given as a tablet, and the effect of clarithromycin on apixaban (25 μg), edoxaban (50 μg), and rivaroxaban (25 μg) administered as an oral microdose cocktail. Concurrently, the effect of clarithromycin on CYP3A activity was quantified by means of an oral midazolam microdose (30 μg) (Fig. 1).
(§2) CYP3A4 activity was quantified using a microdose of midazolam administered as an oral solution, which was administered directly before administering the FXaI [19, 20]. Clarithromycin was dosed to inhibition steady-state (7-day treatment prior to evaluation of any perpetrator effects and treatment continued until last blood sampling) and administered at a dose of 500 mg b.i.d. to ensure reliable inhibition of hepatic CYP3A4 (mechanism-based inhibition), while maximum CYP3A4 inhibition in the gut wall was expected to occur earlier. Single-dose pharmacokinetics of the FXaI were assessed at baseline and on day 8 (microdosed FXaI cocktail) and day 9 (edoxaban 60 mg) of clarithromycin treatment.
(§3) Venous plasma samples for pharmacokinetic FXaI analyses were collected before and 0.25, 0.5, 0.75, 1, 1.5, 2, 2.5, 3, 3.5, 4, 5, 6, 8, 10, 12, 24 (last sampling after microdoses), and 48 h (last sampling for edoxaban 60 mg) after drug administration. Midazolam pharmacokinetics were assessed using a limited sampling strategy with sampling at 2, 2.5, 3, and 4 h post dose. All samples were processed within 20 min, and plasma was stored at ≤ – 20 °C until analysis. Coagulation effects (international normalized ratio (INR) and activated partial thromboplastin time (aPTT)) were assessed at expected FXaI peak plasma concentrations (3 h post dose) in the accredited central laboratory of the hospital.
(§4) Apixaban, edoxaban, midazolam, and rivaroxaban plasma concentrations were quantified using validated highly sensitive ultra-performance liquid chromatography–tandem mass spectrometry (UPLC-MS/MS) methods with accuracy and precision values of less than or equal to ± 15 % [22, 23]. The corresponding lower limits of quantification were 1 pg/ml for microdosed midazolam, 2.5 pg/ml for all microdosed FXaI, and 1 ng/ml for regular doses of edoxaban.
(§5) Non-compartmental analyses of the FXaI and midazolam pharmacokinetics were performed using Phoenix WinNonlin 8.3 (Certara, Inc., Princeton, NJ, USA). Linear modelling of AUC ratios was done using the R software environment in version 4.0.4 (R Foundation for Statistical Computing, Vienna, Austria). Maximum plasma concentration (Cmax) and the time to reach Cmax (Tmax) were directly obtained from the pharmacokinetic data. The area under the concentration-time curve from 0 to infinity (AUC0-∞) was determined using the log-linear trapezoidal rule and by adding the extrapolated part until infinity. Half-life (t1/2) is calculated as ln(2)/λz , where the elimination rate constant λz was estimated using log-linear regression of the elimination phase. The apparent oral clearance (Cl/F) was calculated as dose/AUC0--∞ . CYP3A4 activity was determined using a limited sampling strategy using the midazolam AUC2-4 as described earlier. […] Exposure changes are described by evaluating the geometric mean ratio (paired t-test on log-transformed values) of AUC0-∞ and Cmax at baseline and under the influence of steady-state clarithromycin (90 % CI). The AUC2-4 of midazolam was evaluated at multiple time points using a repeated-measures analysis of variance after logarithmic transformation.

[4] = cited from earlier work; remark: listed apart in the source
[5] = test system: P-gp; parameters: method as in PMID 12848773, PMID 18987624; settings: digoxin given intravenously and orally; cited from earlier work
[6] = test system: CYP3A; experiment: CYP3A activity by oral midazolam microdose (AUC2-4, limited sampling); assay type: in vivo, human (healthy volunteers); settings: human, plasma, 30 ug, oral microdose 30 μg
Method: as §1
CYP3A4 activity was quantified using a microdose of midazolam administered as an oral solution, which was administered directly before administering the FXaI [19, 20]. […] Single-dose pharmacokinetics of the FXaI were assessed at baseline and on day 8 (microdosed FXaI cocktail) and day 9 (edoxaban 60 mg) of clarithromycin treatment.
as §3, with “All samples were processed within 20 min, and plasma was stored at ≤ – 20 °C until analysis.” left out, “hospital. […]” for “hospital.”

[7] = test system: coagulation markers (aPTT, INR); experiment: Coagulation effects (aPTT, INR) 3 h post dose; assay type: in vivo, human (healthy volunteers); settings: for INR, mean / aPTT, mean: 180 min after administration
Method: as §3

[8] = Pharmacokinetics of a single 60 mg edoxaban dose before and during clarithromycin; settings: for Tmax / Vd: geometric mean; for Vd: Vz
Method: as §1, §2, §3, §4, §5

[9] = Safety: adverse events in the trial; assay type: in vivo, human (healthy volunteers); settings: while taking clarithromycin 500 mg b.i.d.; 12 participants
[10] = parameters: method as in PMID 32511684; settings: during clarithromycin compared to azithromycin, patients mainly anticoagulated with FXaI; cited from earlier work
[11] = human, in vivo, po, geometric mean
[12] = oral microdose cocktail, at clarithromycin steady-state
[13] = oral microdose cocktail, baseline
[14] = regular apixaban dose with clarithromycin, ref 24 (Garonzik et al. 2019)
[15] = oral microdose cocktail, clarithromycin steady state vs baseline
[16] = edoxaban 60 mg with clarithromycin
[17] = edoxaban 60 mg, clarithromycin steady state vs baseline
[18] = human, in vivo, 60 mg, edoxaban 60 mg, at clarithromycin steady-state
[19] = human, in vivo, 60 mg, edoxaban 60 mg, baseline
[20] = regular rivaroxaban dose with clarithromycin, ref 16 (Mueck et al. 2013)

## COc1ccc(-n2nc(C(N)=O)c3c2C(=O)N(c2ccc(N4CCCCC4=O)cc2)CC3)cc1 [Apixaban, apixaban]
[1]
  exposure increase caused by verapamil or diltiazem: approximately 40%
[1]; therapeutic dose of apixaban
  exposure change with ketoconazole: 99%
[2]
  CYP contribution to overall clearance: 21%
[3]; human, in vivo, po
  Cl / F, geometric mean: 4.9 L/h
  Vz, geometric mean: 52 L
  t1/2, geometric mean: 7.1 h
[3]; [11]
  Cmax: 0.653 ng/mL
[3]; [12]
  Tmax, geometric mean: 2.23 h
[3]; [13]
  Tmax, geometric mean: 1.9 h
[4]; apixaban
  increase of concentrations (exposure) by clarithromycin: 60%
[4]; [14]
  AUC0-∝ geometric mean ratio: 1.60
  Cmax geometric mean ratio: 1.30

## C[C@H]1O[C@@H](O[C@H]2[C@@H](O)C[C@H](O[C@H]3[C@@H](O)C[C@H](O[C@H]4CC[C@@]5(C)[C@H](CC[C@@H]6[C@@H]5C[C@@H](O)[C@]5(C)[C@@H](C7=CC(=O)OC7)CC[C@]65O)C4)O[C@@H]3C)O[C@@H]2C)C[C@H](O)[C@@H]1O [digoxin]
[5]
  reduction of renal tubular secretion by oral clarithromycin: 15%

## Cc1ncc2n1-c1ccc(Cl)cc1C(c1ccccc1F)=NC2 [Midazolam, midazolam]
[6]; at clarithromycin steady-state
  AUC: 0.672 ng·h/mL
[6]; baseline
  AUC: 0.107 ng·h/mL

## CN1CCc2nc(C(=O)N[C@@H]3C[C@@H](C(=O)N(C)C)CC[C@@H]3NC(=O)C(=O)Nc3ccc(Cl)cn3)sc2C1 [Edoxaban, edoxaban]
[1]
  effect of selective inhibition of CYP3A (by voriconazole) on pharmacokinetics: does not affect its pharmacokinetics
[1]; therapeutic dose of edoxaban
  exposure change with ketoconazole: 87%
[2]
  contribution of CYP3A to the overall metabolic clearance: 1%
[3]; at baseline
  GMR of dose-normalized AUC0-∞, microdose vs therapeutic dose: 1.08
[3]; at steady-state of clarithromycin
  GMR of dose-normalized AUC0-∞, microdose vs therapeutic dose: 1.43
[3]; human, in vivo, po, geometric mean, oral microdose cocktail (25 μg apixaban, 50 μg edoxaban, 25 μg rivaroxaban), baseline
  AUC: 1.05 ng·h/mL
[3]; human, in vivo, po, geometric mean, oral microdose cocktail, at steady-state clarithromycin (day 8)
  AUC: 2.13 ng·h/mL
[3]; human, in vivo, po, geometric mean, oral microdose cocktail, at steady-state clarithromycin
  Cmax: 0.341 ng/mL
[3]; human, in vivo, po, geometric mean, oral microdose cocktail, baseline
  Cmax: 0.153 ng/mL
[3]; human, in vivo, po, Tmax, geometric mean, oral microdose cocktail, at clarithromycin steady-state
  Tmax: 1.72 h
[3]; human, in vivo, po, Tmax, geometric mean, oral microdose cocktail, baseline
  Tmax: 1.17 h
[3]; [12]
  Cl / F, geometric mean: 23 L/h
  Vz, geometric mean: 217 L
[3]; [13]
  Cl / F, geometric mean: 48 L/h
  Vz, geometric mean: 399 L
[3]; [15]
  AUC0-∝ geometric mean ratio: 2.03
  Cmax geometric mean ratio: 2.22
[7]; edoxaban 60 mg
  INR, change during clarithromycin, GMR: 1.39
[7]; edoxaban 60 mg alone
  INR, mean: 1.23
  aPTT, mean: 33.4
[7]; [16]
  INR, mean: 1.43
  aPTT, mean: 40.2
[8]; edoxaban 60 mg
  increase of edoxaban exposure by clarithromycin: 53%
[8]; edoxaban 60 mg, at clarithromycin steady-state
  Cl / F, geometric mean: 34 L/h
[8]; edoxaban 60 mg, at steady-state clarithromycin
  Cmax, geometric mean: 258 ng/mL
[8]; edoxaban 60 mg, baseline
  Cl / F, geometric mean: 51 L/h
[8]; [17]
  AUC0-∝ geometric mean ratio: 1.53
  Cmax geometric mean ratio: 1.27
[8]; human, in vivo, 60 mg
  Cmax: 203 ng/mL
[8]; [18]
  Tmax: 1.67 h
  Vd: 361 L
[8]; [19]
  Tmax: 1.27 h
  Vd: 594 L
[8]; human, in vivo, po, 60 mg
  AUC: 1170 ng·h/mL

## O=C(NC[C@H]1CN(c2ccc(N3CCOCC3=O)cc2)C(=O)O1)c1ccc(Cl)s1 [Rivaroxaban, rivaroxaban]
[1]
  exposure increase caused by verapamil or diltiazem: approximately 40%
[1]; therapeutic dose of rivaroxaban
  exposure change with ketoconazole: 158%
[2]
  CYP contribution to overall clearance: 32%
[3]; human, in vivo, po
  Cl / F, geometric mean: 9.0 L/h
  Tmax: 0.917 h
  Vz, geometric mean: 85 L
  t1/2, geometric mean: 6.3 h
[3]; [11]
  Cmax: 0.65 ng/mL
[4]; [20]
  AUC0-∝ geometric mean ratio: 1.54
  Cmax geometric mean ratio: 1.40
[4]; rivaroxaban
  increase of concentrations (exposure) by clarithromycin: 50–100%
[4]; therapeutic doses of rivaroxaban
  magnitude of drug interaction (exposure increase) with clarithromycin: 54%

## CC[C@H]1OC(=O)[C@H](C)[C@@H](O[C@H]2C[C@@](C)(OC)[C@@H](O)[C@H](C)O2)[C@H](C)[C@@H](O[C@@H]2O[C@H](C)C[C@H](N(C)C)[C@H]2O)[C@](C)(OC)C[C@@H](C)C(=O)[C@H](C)[C@@H](O)[C@]1(C)O [clarithromycin]
[9]
  adverse event dysgeusia, number of participants: 9
[10]
  increase of the risk of hospital admission due to major bleeding events: 71%
